Assays:
[1] = tested on: T47D (PI3Kα-H1047R) cell line; experiment: HTRF phospho-AKT(S473) cell assay in T47D cells; assay type: cell-based, human
Summary of the method: (§1)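 T47D: RPMI + 10% FBS + 0.2 units/mL insulin, top 5 μM. SKBR3: McCoy's 5A + 10% FBS, top 10 μM, 70 ng/ml PDGF-BB last 15 min. Both: 12-pt 1:3, 2 h, 37° C, max 0.5% DMSO; HTRF pAKT(S473); IC50.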

[2] = tested on: SKBR3 (PI3Kα-Wild Type) cell line; experiment: HTRF phospho-AKT(S473) cell assay in SKBR3 cells; assay type: cell-based, human
Summary of the method: as §1

[3] = Homo sapiens; HTRF phospho-AKT(S473), T47D (PI3Kα-H1047R) cells, 2 hours compound incubation
[4] = Homo sapiens, SK-BR-3; HTRF phospho-AKT(S473), SKBR3 (PI3Kα-Wild Type) cells, 2 hours compound incubation, PDGF-BB stimulated
[5] = Homo sapiens; T47D (PI3Kα-H1047R) cells, HTRF phospho-AKT(S473), 2 hours compound incubation
[6] = Homo sapiens, SK-BR-3; SKBR3 (PI3Kα-Wild Type) cells, HTRF phospho-AKT(S473), 2 hours compound incubation, PDGF-BB stimulated

IC50 [1, 3] [nM] | IC50 [2, 4] [nM] | IC50 [1, 5] [nM] | IC50 [2, 6] [nM] | Structure (SMILES)
– | – | < 250 | 1000 to 5000 | Cc1cc([C@@H](C)Nc2ccc(Cl)nc2C(=O)NS(C)(=O)=O)c2nc(N3CCC(c4cccnc4C)CC3)n(C)c(=O)c2c1 [Compound 437, (R)-6-chloro-3-((1-(3,6-dimethyl-2-(4-(2-methylpyridin-3-yl)piperidin-1-yl)-4-oxo-3,4-dihydroquinazolin-8-yl)ethyl)amino)-N-(methylsulfonyl) picolinamide]
250 to 500 | 1000 to 5000 | – | – | Cc1cc([C@@H](C)Nc2ccc(Cl)nc2C(=O)NS(C)(=O)=O)c2nc(N3CCC(c4ncccn4)CC3)n(C)c(=O)c2c1 [Compound 500, (R)-6-chloro-3-((1-(3,6-dimethyl-4-oxo-2-(4-(pyrimidin-2-yl)piperidin-1-yl)-3,4-dihydroquinazolin-8-yl)ethyl)amino)-N-(methylsulfonyl) picolinamide]
– | – | < 250 | 1000 to 5000 | Cc1cc([C@@H](C)Nc2ccc(Cl)nc2C(=O)NS(C)(=O)=O)c2nc(N3CCn4nc(C)cc4C3)n(C)c(=O)c2c1 [Compound 166]
– | – | < 250 | 1000 to 5000 | Cc1cc([C@@H](C)Nc2ccc(Cl)nc2C(=O)NS(C)(=O)=O)c2nc(N3CCC(c4cnc(C)nc4)CC3)n(C)c(=O)c2c1 [Compound 261, (R)-6-chloro-3-((1-(3,6-dimethyl-2-(4-(2-methylpyrimidin-5-yl)piperidin-1-yl)-4-oxo-3,4-dihydroquinazolin-8-yl)ethyl)amino)-N-(methylsulfonyl) picolinamide]
– | – | < 250 | 1000 to 5000 | Cc1cc([C@@H](C)Nc2ccc(Cl)nc2C(=O)NS(C)(=O)=O)c2nc(N3CCC(c4cc(F)cnc4C)CC3)n(C)c(=O)c2c1 [Compound 436, (R)-6-chloro-3-((1-(2-(4-(5-fluoro-2-methylpyridin-3-yl)piperidin-1-yl)-3,6-dimethyl-4-oxo-3,4-dihydroquinazolin-8-yl)ethyl)amino)-N-(methylsulfonyl) picolinamide]
– | – | 250 to 500 | 1000 to 5000 | Cc1cc([C@@H](C)Nc2ccc(Cl)nc2C(=O)NS(C)(=O)=O)c2nc(N3CCC(c4n[nH]cc4F)CC3)n(C)c(=O)c2c1 [Compound 420, (R)-6-chloro-3-((1-(2-(4-(4-fluoro-1H-pyrazol-3-yl)piperidin-1-yl)-3,6-dimethyl-4-oxo-3,4-dihydroquinazolin-8-yl)ethyl)amino)-N-(methylsulfonyl) picolinamide]
– | – | 250 to 500 | ≥ 5000 | Cc1cc([C@@H](C)Nc2ccc(Cl)nc2C(=O)NS(C)(=O)=O)c2nc(N3CCC(C)(c4c(F)cnn4C)CC3)n(C)c(=O)c2c1 [Compound 407, (R)-6-chloro-3-((1-(2-(4-(4-fluoro-1-methyl-1H-pyrazol-5-yl)-4-methylpiperidin-1-yl)-3,6-dimethyl-4-oxo-3,4-dihydroquinazolin-8-yl)ethyl)amino)-N-(methylsulfonyl) picolinamide]
– | – | < 250 | ≥ 5000 | Cc1ccc(C2CCN(c3nc4c([C@@H](C)Nc5ccc(Cl)nc5C(=O)NS(C)(=O)=O)cc(C)cc4c(=O)n3C)CC2)nc1 [Compound 403, (R)-6-chloro-3-((1-(3,6-dimethyl-2-(4-(5-methylpyridin-2-yl)piperidin-1-yl)-4-oxo-3,4-dihydroquinazolin-8-yl)ethyl)amino)-N-(methylsulfonyl) picolinamide]

More lines, now with the values behind:

Structure (SMILES) | IC50 [1, 3] [nM] | IC50 [2, 4] [nM] | IC50 [1, 5] [nM] | IC50 [2, 6] [nM]
Cc1cc([C@@H](C)Nc2ccc(Cl)nc2C(=O)NS(C)(=O)=O)c2nc(N3C[C@@H]4C[C@H]3CN4c3ccc(C#N)cn3)n(C)c(=O)c2c1 [Compound 580, 6-chloro-3-(((R)-1-(2-((1S,4S)-5-(5-cyanopyridin-2-yl)-2,5diazabicyclo [2.2.1]heptan-2-yl)-3,6-dimethyl-4-oxo-3,4-dihydroquinazolin-8-yl)ethyl)amino)-N-(methylsulfonyl) picolinamide] | 250 to 500 | ≥ 5000 | – | –
Cc1cc([C@@H](C)Nc2ccc(Cl)nc2C(=O)NS(C)(=O)=O)c2nc(N3C[C@@H]4CC4(c4cnc(C)nc4)C3)n(C)c(=O)c2c1 (relative stereo) [Compound 752, 6-chloro-3-(((R)-1-(3,6-dimethyl-2-((1R*,5R*)-1-(2-methylpyrimidin-5-yl)-3-azabicyclo[3.1.0]hexan-3-yl)-4-oxo-3,4-dihydroquinazolin-8-yl)ethyl)amino)-N-(methylsulfonyl) picolinamide] | 500 to 1000 | ≥ 5000 | – | –
Cc1cc([C@@H](C)Nc2ccc(Cl)nc2C(=O)NS(C)(=O)=O)c2nc(N3Cc4cn(-c5ccccc5C)nc4C3)n(C)c(=O)c2c1 [Compound 189, (R)-6-chloro-3-((1-(3,6-dimethyl-4-oxo-2-(2-(o-tolyl)-2,6-dihydropyrrolo[3,4-c]pyrazol-5(4H)-yl)-3,4-dihydroquinazolin-8-yl)ethyl)amino)-N-(methylsulfonyl) picolinamide] | – | – | 250 to 500 | ≥ 5000
Cc1cc([C@@H](C)Nc2ccc(Cl)nc2C(=O)NS(C)(=O)=O)c2nc(-c3ccc4c(c3)CN(C)C4=O)n(C)c(=O)c2c1 [Compound 796, (R)-6-chloro-3-((1-(3,6-dimethyl-2-(2-methyl-1-oxoisoindolin-5-yl)-4-oxo-3,4-dihydroquinazolin-8-yl)ethyl)amino)-N-(methylsulfonyl) picolinamide] | < 250 | 1000 to 5000 | – | –
COC1CCC2(CC1)CCN(c1nc3c([C@@H](C)Nc4ccc(Cl)nc4C(=O)NS(C)(=O)=O)cc(C)cc3c(=O)n1C)CC2 [Compound 282, (R)-6-chloro-3-((1-(2-(9-methoxy-3-azaspiro[5.5]undecan-3-yl)-3,6-dimethyl-4-oxo-3,4-dihydroquinazolin-8-yl)ethyl)amino)-N-(methylsulfonyl) picolinamide] | – | – | < 250 | ≥ 5000
Cc1cc([C@@H](C)Nc2ccc(Cl)nc2C(=O)NS(C)(=O)=O)c2nc(N3C[C@@H]4[C@H](C3)[C@H]4c3cn(C)nc3C)n(C)c(=O)c2c1 [Compound 430, 6-chloro-3-(((R)-1-(2-((1R,5S,6S)-6-(1,3-dimethyl-1H-pyrazol-4-yl)-3-azabicyclo[3.1.0]hexan-3-yl)-3,6-dimethyl-4-oxo-3,4-dihydroquinazolin-8-yl)ethyl)amino)-N-(methylsulfonyl) picolinamide] | – | – | < 250 | 1000 to 5000
Cc1cc([C@@H](C)Nc2ccc(Cl)nc2C(=O)NS(C)(=O)=O)c2nc(N3Cc4ccc(-c5ccnc(C)c5)cc4C3)n(C)c(=O)c2c1 [Compound 709, (R)-6-chloro-3-((1-(3,6-dimethyl-2-(5-(2-methylpyridin-4-yl)isoindolin-2-yl)-4-oxo-3,4-dihydroquinazolin-8-yl)ethyl)amino)-N-(methylsulfonyl) picolinamide] | 250 to 500 | ≥ 5000 | – | –
Cc1cc([C@@H](C)Nc2ccc(Cl)nc2C(=O)NS(C)(=O)=O)c2nc(-c3cnc(N4CCOCC4)nc3)n(C)c(=O)c2c1 [Compound 814, (R)-6-chloro-3-((1-(3,6-dimethyl-2-(2-morpholinopyrimidin-5-yl)-4-oxo-3,4-dihydroquinazolin-8-yl)ethyl)amino)-N-(methylsulfonyl) picolinamide] | < 250 | 1000 to 5000 | – | –
Cc1cc([C@@H](C)Nc2ccc(Cl)nc2C(=O)NS(C)(=O)=O)c2nc(N3CCC[C@H](c4ccncc4)C3)n(C)c(=O)c2c1 (relative stereo) [Compound 205, 6-chloro-3-(((R)-1-(3,6-dimethyl-4-oxo-2-((R*)-3-(pyridin-4-yl)piperidin-1-yl)-3,4-dihydroquinazolin-8-yl)ethyl)amino)-N-(methylsulfonyl) picolinamide] | – | – | < 250 | 1000 to 5000
C[C@@H](Nc1ccc(Cl)nc1C(=O)NS(C)(=O)=O)c1cc(F)cc2c(=O)n(C)c(-c3ccc4nn(C)cc4c3)nc12 [Compound 805, (R)-6-chloro-3-((1-(6-fluoro-3-methyl-2-(2-methyl-2H-indazol-5-yl)-4-oxo-3,4-dihydroquinazolin-8-yl)ethyl)amino)-N-(methylsulfonyl) picolinamide] | 250 to 500 | 1000 to 5000 | – | –
COc1cc([C@H]2[C@@H]3CN(c4nc5c([C@@H](C)Nc6ccc(Cl)nc6C(=O)NS(C)(=O)=O)cc(C)cc5c(=O)n4C)C[C@@H]32)c(F)cn1 [Compound 479, 6-chloro-3-(((R)-1-(2-((1R,5S,6S)-6-(5-fluoro-2-methoxypyridin-4-yl)-3-azabicyclo[3.1.0]hexan-3-yl)-3,6-dimethyl-4-oxo-3,4-dihydroquinazolin-8-yl)ethyl)amino)-N-(methylsulfonyl) picolinamide] | 250 to 500 | ≥ 5000 | – | –
Cc1cc([C@@H](C)Nc2ccc(Cl)nc2C(=O)NS(C)(=O)=O)c2nc(N3C[C@@H]4[C@H](C3)[C@H]4c3cc(C)n(C)n3)n(C)c(=O)c2c1 [Compound 435, 6-chloro-3-(((R)-1-(2-((1R,5S,6R)-6-(1,5-dimethyl-1H-pyrazol-3-yl)-3-azabicyclo[3.1.0]hexan-3-yl)-3,6-dimethyl-4-oxo-3,4-dihydroquinazolin-8-yl)ethyl)amino)-N-(methylsulfonyl) picolinamide] | – | – | < 250 | 1000 to 5000
Cc1cc([C@@H](C)Nc2ccc(Cl)nc2C(=O)NS(C)(=O)=O)c2nc(N3CCC[C@H](c4nccc(C)n4)C3)n(C)c(=O)c2c1 (relative stereo) [Compound 648, 6-chloro-3-(((R)-1-(3,6-dimethyl-2-((R*)-3-(4-methylpyrimidin-2-yl)piperidin-1-yl)-4-oxo-3,4-dihydroquinazolin-8-yl)ethyl)amino)-N-(methylsulfonyl) picolinamide] | 1000 to 5000 | ≥ 5000 | – | –
